What was measured:
[1] = H2S generation in buffer, liver homogenate and liver homogenate with PAG, sulfide sensitive electrode; type: in vitro ADME, rat; conditions: 1 mM compound, FIG. 21; for H2S release in buffer: potassium phosphate buffer pH 7.4, 37° C.; for Effect of PAG (DL-propargylglycine) on H2S generation in liver homogenate: PAG 2 mM, inhibitor of cystathionine γ-lyase
[2] = test system: visceral pain perception in response to colorectal distension; test: Rat model of visceral pain perception, colorectal distension, abdominal withdrawal reflex score; type: in vivo; conditions: for Pain perception score after glibenclamide pretreatment: glibenclamide 10 mg/kg i.p. 30 min before
Method: A rat model of visceral pain perception, a pre-clinical model of irritable bowel syndrome, was used in the following example. Rats (male, Wistar, 200-250 g, obtained from Charles River, Monza, Italy), were housed in plastic cages and maintained under controlled conditions with 12-hours light/dark cycle with lights on at 7.00 AM. Tap water and standard laboratory chow were freely available. Before experiments, rats were individually trained by spending 2-3 hours per day in a plexiglass cage for 2-3 days. It allowed them to adjust to a movement-restriction environment. Food was withheld for 12 hours before colorectal distension (CRD) recording were performed. Experiments were performed in awake rats and were conducted in a blind manner in that the observer was not aware of the identity of drug administered to each animal.
In the testing day, rats were sedated with ether inhalation and a 2 cm long latex balloon was inserted intrarectally 2 cm from the anal verge and fixed at the base of the tail. The balloon was connected via a double-barreled cannula to a pressure transducer to continuously monitoring the rectal pressure by a computer (PowerLab PC, A.D. Instruments, Milford, Mass., USA) and to a syringe for inflation/deflation of the balloon. The rats were then housed in a small cage (20×8×8 cm) on an elevated Plexiglas™ platform and allowed to wake up and adapt for 1 hour. After recovery from sedation, animals underwent the CRD procedure and behavioral responses were tested. The night before the experiments, the balloons were inflated and left overnight so the latex stretched and the balloons became compliant.
CRD of 20 seconds, performed every 5 minutes, was applied in increment of 0.4 ml starting from 0.4 ml up to 1.6 ml water. To achieve an accurate measurement of the colonic parameters and perception, the distensions were repeated twice for each intensity and data for each animal were averaged for analysis. Each animal underwent a double set of CRD. Twenty minutes after the first sequence of CRD (0.4 mL-1.6 ml water), drugs were administered intraperitoneally (i.p.) and a second set of CRD was performed. Behavioral responses during the first and the second set of CRD were assessed and compared.
Behavioral response to CRD was assessed by measuring the abdominal withdrawal reflex (AWR) using a semiquantitative score (1).
The effects of mesalamine and Compound XXXV on colonic compliance and sensitivity were determined using a total of 8 fasting rats. To investigate whether the administration of mesalamine and Compound XXXV could revert pain induced by CRD, after the first sequence of CRD, […], after which a second set of CRD was repeated.
All data are presented as the mean±SEM, with sample sizes of 4 rats/group; statistical comparison of paired data was performed by the Wilcoxon signed rank test. An associated probability (p value) of less that 5% was considered significant.

thoracic aorta rings = test: Vasorelaxant effect on phenylephrine-precontracted thoracic aorta rings; set-up: species or system CD-1 mice; conditions: cumulative 10 nM-3 mM on PE (1 μM) precontracted rings with endothelium; FIG. 22
Method: CD-1 mice were sacrificed and thoracic aorta was rapidly dissected and cleaned from fat and connective tissue. […] Changes in isometric tension were recorded with PowerLab™ data acquisition system (Ugo Basile, Italy). […] Rings were initially stretched until a resting tension of 1.5 g was reached and allowed to equilibrate for at least 40 minutes during which tension was adjusted, when necessary, to 1.5 g and bathing solution was periodically changed.
Vehicle represents buffer but no compound. Curves to tested compounds were constructed in presence of endothelium.
Data obtained are shown in FIG. 22 and are expressed as mean±SEM. The level of statistical significance was determined by 2-way analysis of variance (ANOVA) followed by Bonferroni's test for multiple comparison, using the GraphPad™ software.

TNBS-induced colitis = TNBS-induced colitis in mice, disease activity score; type: in vivo; conditions: Compound XXVII 100 mg/kg vs mesalamine 50 mg/kg, 4-HTB 50 mg/kg and their mixture; FIG. 5
Method: (§1) A standard experimental animal model of colitis induced by intracolonic administration of 2,4,6-trinitrobenzene sulfonic acid (TNBS) to mice is used in the following example. A detailed description of this model has been published (Santucci et al. (2003) Gastroenterology 124:1381-94) and is incorporated herein by reference. Briefly, 6-8 week old Balb/c mice were given TNBS intracolonically at a dose of 1.5 mg in 0.1 mL of 30% ethanol. The mice were randomized to the various treatment groups (n=6 per group). Beginning one hour later and continuing every 12 h for 5 days, the mice were treated orally with vehicle (1% carboxymethylcellulose (CMC)), 5-ASA (mesalamine) (25, 50 or 75 mg/kg) or with equimolar doses of 2-hydroxy-5-amino-benzoic acid 4-(thioxo-5H-[1,2]dithiol-3-yl)-phenyl ester hydrochloride (Compound XXXV) (130 mg/kg), or with […] (100 mg/kg), 50% (66 mg/kg) and 25% (33 mg/kg) of that dose. The mice were evaluated (blindly) on the final day of the study for the presence of diarrhea and fecal occult blood, and their body weights were measured. […] After sacrifice, a sample of the colon was excised for measurement of myeloperoxidase (MPO) activity, as a marker of granulocyte infiltration. All results were compared to those obtained with healthy mice as well.

[3] = test system: myeloperoxidase (MPO) activity; test: TNBS-induced colitis in mice, colonic myeloperoxidase (MPO) activity as marker of granulocyte infiltration; type: in vivo; conditions: Compound XXVII 100 mg/kg; FIG. 6
Method: as §1

[4] = test system: leukocyte adherence to the vascular endothelium; test: Aspirin-induced leukocyte adherence to the vascular endothelium, intravital microscopy of mesenteric venules; type: in vivo, rat
Method: Leukocyte adherence was studied using intravital microscopy, as described in detail previously (Wallace et al., (1993) Am. J. Physiol. 265: 993-998, incorporated hereto by reference). Rats were anesthetized with pentobarbital sodium (60 mg/kg i.p.) and cautery incisions were made along the abdominal region. A tracheotomy was performed to facilitate breathing. The rats were placed in a supine position, and a segment of the mesentery was exteriorized through the abdominal incision. The mesentery was carefully placed over an optically clear viewing pedestal that allowed for trans-illumination of a 2-cm^2 segment of tissue. All exposed tissue was covered with saline-soaked gauze to minimize dehydration. The temperature of the pedestal was kept at 37° C. and the mesentery was superfused with warmed bicarbonate-buffered saline (pH 7.4). An intravital microscope (Nikon L25/0.35) and a ×10 eyepiece were used to observe the mesenteric microcirculation. Post-capillary venules with diameters ranging from 20 to 40 μm were selected for the study. A video camera mounted on the microscope (Panasonic™ digital 5000) projected the image onto a monitor, and the images were recorded for playback analysis using a videocassette recorder. Images of the mesenteric microcirculation were recorded 5 minutes prior to aspirin administration (baseline), at the time of aspirin administration (time 0-5) and every 15 minutes for 60 minutes. Leukocyte adherence was blindly quantified from videotaped images of the vessels made over 5-min periods as the number of leukocytes that remained stationary along the vessel wall for 30 s or more (expressed per 100 μm venule length). Groups of rats (at least 5 in each) were pretreated with Compound XXXV (130 mg/kg), Compound XXVII (100 mg/kg), mesalamine (50 mg/kg), or vehicle 60 min prior to aspirin (or vehicle) administration. These drugs were given intragastrically. In some experiments, rats were treated with glibenclamide (10 mg/kg i.p.) or vehicle 30 min prior to administration of these compounds.

[5] = after patients have taken the usual doses; Dig. Dis. Sci. 1989; 34: 573-578; cited from earlier work
[6] = Viability of HT-29 human colon cancer cells, MTT assay; type: cell-based; conditions: HT-29 colon cancer cells, 72 h exposure, HT-29, MTT, read-out: Cell viability rate as a percent of the vehicle (DMSO)-treated cells
Method: HT-29 cells were grown in culture using standard methods. The cells were exposed to vehicle (DMSO), mesalamine or Compound XXXV. Concentrations ranging from 0.1 to 10 μM were tested, with each concentration tested in 6 wells. At the end of 72 h of exposure to the test drugs, cell viability was measured using the MTT [3-(4,5-dimethylthiaxol-2-yl)-2,5-diphenyltetrazolium bromide] assay (Carmichael et al. (1978) Cancer Res. 47, 936-942), incorporated herein by reference.

[7] = equimolar doses: mesalamine 50 mg/kg, Compound XXXV 130 mg/kg, ADT-OH 80 mg/kg, Compound XXVII 100 mg/kg, 4-HTB 50 mg/kg, vs vehicle
[8] = 0.8 mL colorectal distention, 100 mg/kg, FIG. 17

Q: With `Oc1ccc(-c2cc(=S)ss2)cc1` [ADT-OH, 5-p-hydroxyphenyl-1,2-dithione-3-thione, reference compound] as the compound, how does the “H2S release in buffer” value [1] read?
A: Its value is “did not release significant H2S”.

Q: What about the Pain perception score [2, 7] of the same compound?
A: The Pain perception score was “Only Compound XXXV and Compound XXVII significantly reduced pain perception”.

Q: For `NC(=S)c1ccc(O)cc1` [Compound 4-HTB, 4-hydroxythiobenzamide, reference compound], which “H2S release in buffer” value [1] is on record?
A: The value was “did not release significant H2S”.

Q: What about the “Vasorelaxant effect (% relaxation), concentration dependent, compared to vehicle” value (thoracic aorta rings) of the same compound?
A: Its value is “significant vasorelaxant effects”.

Q: And the Pain perception score [2, 7]?
A: The Pain perception score was “Only Compound XXXV and Compound XXVII significantly reduced pain perception”.

Q: What does the source list for `NC(=S)c1ccc(OC(=O)c2cc(N)ccc2O)cc1` [Compound XXVII, 5-Amino-2-hydroxy-benzoic acid 4-thiocarbamoyl-phenyl ester]?
A: Disease Activity Index (TNBS-induced colitis): almost three times as effective as either mesalamine alone, 4-HTB alone or a mixture of mesalamine and 4-HTB; MPO activity (granulocyte infiltration) [3]: significantly reduced inflammation; Effect of PAG (DL-propargylglycine) on H2S generation in liver homogenate [1]: lack of effect; H2S release in buffer [1]: release H2S spontaneously (in buffer); H2S release in liver homogenate compared with buffer ([1]; rat liver homogenate 10% (wt/vol)): greater when in the presence of tissue; Aspirin-induced leukocyte adherence, final time period ([4]; minutes 60-65, XXXV 130 mg/kg, XXVII 100 mg/kg intragastric, FIG. 20): suppress aspirin-induced leukocyte adherence; Aspirin-induced leukocyte adherence, final time period, after glibenclamide pretreatment ([4]; minutes 60-65, glibenclamide 10 mg/kg i.p., FIG. 20): reverse this inhibitor effect; Pain perception score after glibenclamide pretreatment [2, 8]: reversed by pretreatment with glibenclamide; Pain perception score [2, 8]: significantly reduced the pain perception; Pain perception score [2, 7]: significantly reduced pain perception

Q: What does the source list for `COc1ccc(Cl)cc1C(=O)NCCc1ccc(S(=O)(=O)NC(=O)NC2CCCCC2)cc1` [Glibenclamide, glibenclamide, reference compound]?
A: Leukocyte adherence without aspirin ([4]; glibenclamide alone, 10 mg/kg i.p.): did not affect leukocyte adherence; Aspirin-induced leukocyte adherence ([4]; intragastric pretreatment 60 min prior to aspirin (XXXV 130 mg/kg, mesalamine 50 mg/kg), glibenclamide 10 mg/kg i.p., FIG. 19): did not affect the magnitude of aspirin-induced leukocyte adherence

Q: What does the source list for `N[C@@H](CS)C(=O)O` [L-cysteine, reference compound]?
A: Effect of PAG (DL-propargylglycine) on H2S generation in liver homogenate [1]: markedly inhibited; H2S release in buffer [1]: did not release significant H2S

Q: Which “Concentration in the colonic lumen” value [5] does the source give for `Nc1ccc(O)c(C(=O)O)c1` [Mesalamine, 5-aminosalicylic acid] here?
A: Its value is “up to 5 mM”.

Q: And the viability at 72 h, 0.1 µM ([6]; 0.1 μM)?
A: The viability at 72 h, 0.1 µM was 104 ± 2.5%.

Q: And the viability at 72 h, 1 µM ([6]; 1 μM)?
A: Its viability at 72 h, 1 µM is 101 ± 3.5%.

Q: And the viability at 72 h, 10 µM ([6]; 10 μM)?
A: Its viability at 72 h, 10 µM is 91.1 ± 3.2%.

Q: And the “Aspirin-induced leukocyte adherence after glibenclamide pretreatment” value ([4]; glibenclamide 10 mg/kg i.p. 30 min prior to the compound, FIG. 19)?
A: The value was “no effect”.

Q: And the “Pain perception score after glibenclamide pretreatment” value [2, 8]?
A: Its value is “did not affect the pain perception”.

Q: And the Pain perception score [2, 8]?
A: The Pain perception score was “no significant effect”.

Q: And the Pain perception score [2, 7]?
A: Its Pain perception score is “Only Compound XXXV and Compound XXVII significantly reduced pain perception”.

Q: For `CC(=N)S` [thioacetamide], which “Vasorelaxant effect (% relaxation), concentration dependent, compared to vehicle” value (thoracic aorta rings) is on record?
A: The value was “significant vasorelaxant effects”.
